Patent US11517581B2, “Zika virus protease inhibitors and methods of use thereof” (priority 2017, dated 2022)
≈ marks a conversion by molar mass, not a printed value.

What was measured:
[1] = test system: ZIKV; settings: recently reported; cited from earlier work
[2] = molecular target: ZIKV NS2B-NS3 protease (Zika virus, UniProt A0A024B7W1, DEL1468-1502); assay type: biochemical; settings: 10 μM substrate; for Effect of increasing drug concentrations on protease activity: 5 nM protease
[3] = Cell viability (MTT) assay in Vero cells; assay type: cell-based; settings: African green monkey
Description: (§1) Briefly, Vero or Huh-7 cells (4×10^4 cells/well) were incubated with different concentrations of individual drug for 24 h, followed by the addition of 10 μl/well of 5 mg/ml MTT substrate. The monolayers were incubated as above for 4 h (away from light). Finally, 100 μl of 10% sodium dodecyl sulfate (SDS) with 0.01M HCl was added and further incubated at 37° C. with 5% CO2 overnight. […] Briefly, the drug compounds were diluted with serum-free MEM and added to confluent Vero cells in 96-well culture plates (4×10^4 cells/well) in triplicate for 2 h at 37° C. After incubation, the drug-containing media were removed, and ZIKV (multiplicity of infection, MOI=0.0002) was added together with fresh drug-compound media to each well. Following 1 h of adsorption at 37° C., the virus-compound mixture was removed and the cells were washed twice with MEM to remove unbound virus. Subsequently, media with antiviral compounds were added to the cells for further incubation for 6 days at 37° C. in a 5% CO2 humidified environment. CPE was examined by inverted light microscopy (Chan et al., 2016b). Thereafter, MTT substrate and SDS-HCl were added sequentially as mentioned above. The half maximal inhibitory concentration (IC50) and CC50 were calculated using Sigma plot (SPSS) in an Excel add-in ED50V10.

[4] = Cell viability (MTT) assay in Huh-7 cells; assay type: cell-based; settings: human
Description: as §1

[5] = test system: ZIKV (Puerto Rico strain PRVABC59); test: Viral load reduction assay (qRT-PCR) in Vero cells; assay type: cell-based, Zika virus; settings: culture supernatants, Vero and Huh-7; data not shown
[6] = test system: ZIKV; settings: literature; cited from earlier work
[7] = oral and parenteral; cited from earlier work
[8] = test system: ZIKV NS2B-NS3 protease (recombinant fusion, ZIKV-NS2B residues 49-95 and ZIKV-NS3 residues 1-170); test: Fluorescence-based protease inhibition assay; assay type: biochemical, Zika virus; settings: 10 μM substrate, 5 nM protease
Excerpt: The recombinant ZIKV NS2B-NS3 protease was produced as previously described with some modifications (Lei et al., 2016). Briefly, coding regions of the ZIKV-NS2B (residues 49-95) and ZIKV-NS3 (residues 1-170) genes were fused and cloned into the pET-28b(+) expression vector (Novagen, Merck & Co., New Jersey, USA). The plasmid was transformed into Escherichia coli strain BL21 (DE3) and overexpressed in 2×YT medium. When the OD600 of the culture reached 0.8, overexpression of the ZIKV NS2B-NS3 protease gene was induced for overnight by addition of 0.5 mM IPTG at 20° C. […] The purified protein was detected by Western blot using anti-His-tag antibodies. Concentration of protein was determined by Bradford protein assay kit (Bio-Rad Laboratories, California, USA) using bovine serum albumin as standard.
The recombinant ZIKV NS2B-NS3 protease was produced as previously described with some modifications (Lei et al., 2016). To detect ZIKV NS2B-NS3 protease activity, a fluorescence-based enzymatic assay was conducted in 96-well black micro-plates (Greiner Bio-One, Kremsmünster, Germany). […] The fluorescence signal from the released AMC was measured at 460 nm with excitation at 360 nm, using a VICTOR™ X3 multilabel plate reader (Perkin Elmer, Massachusetts, USA). […] After 10 min, the fluorescence intensity was measured. […]

Sequence of ZIKV NS2B-NS3 protease (A0A024B7W1 1502-1672, added parts left off, stated change not applied): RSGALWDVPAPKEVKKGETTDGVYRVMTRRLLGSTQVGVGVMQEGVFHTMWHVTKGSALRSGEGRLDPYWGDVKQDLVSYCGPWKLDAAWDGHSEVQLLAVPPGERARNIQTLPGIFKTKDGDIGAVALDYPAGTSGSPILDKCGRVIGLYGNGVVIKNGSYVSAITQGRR

In the case of `CC[C@H]1OC(=O)[C@H](C)[C@@H](O[C@H]2C[C@@](C)(OC)[C@@H](O)[C@H](C)O2)[C@H](C)[C@@H](O[C@@H]2O[C@H](C)C[C@H](N(C)C)[C@H]2O)[C@](C)(O)C[C@@H](C)CN(C)[C@H](C)[C@@H](O)[C@]1(C)O` [Azithromycin], the “In vitro anti-ZIKV effects” value [1] is listed as “in vitro anti-ZIKV effects”.
In the case of `CCN(CC)CCCC(C)Nc1ccnc2cc(Cl)ccc12` (centres unmarked) [Chloroquine], the “In vitro anti-ZIKV effects” value [1] is listed as “in vitro anti-ZIKV effects”.
For `CCCCCCCCCC(=O)N[C@@H](Cc1c[nH]c2ccccc12)C(=O)N[C@H](CC(N)=O)C(=O)N[C@@H](CC(=O)O)C(=O)N[C@@H]1C(=O)NCC(=O)N[C@@H](CCCN)C(=O)N[C@@H](CC(=O)O)C(=O)N[C@H](C)C(=O)N[C@@H](CC(=O)O)C(=O)NCC(=O)N[C@H](CO)C(=O)N[C@@H]([C@H](C)CC(=O)O)C(=O)N[C@@H](CC(=O)c2ccccc2N)C(=O)O[C@@H]1C` [Daptomycin], the “In vitro anti-ZIKV effects” value [1] is listed as “in vitro anti-ZIKV effects”.
In the case of `N=C(N)NCCC[C@H](NC(=O)[C@@H]1CCCN1C(=O)[C@@H]1CSSCCC(=O)N[C@@H](Cc2ccc(O)cc2)C(=O)N[C@@H](Cc2ccccc2)C(=O)N[C@@H](CCC(N)=O)C(=O)N[C@@H](CC(N)=O)C(=O)N1)C(=O)NCC(N)=O` [Desmopressin acetate], the “Effect of increasing drug concentrations on protease activity” value (“Effect of increasing drug concentrations” below) [2] is reported as “dose-dependent reduction in protease activity”.
In the case of `CC[C@H](C)[C@H]1O[C@]2(CC[C@@H]1C)C[C@@H]1C[C@@H](C/C=C(\C)[C@@H](O[C@H]3C[C@H](OC)[C@@H](O[C@H]4C[C@H](OC)[C@@H](O)[C@H](C)O4)[C@H](C)O3)[C@@H](C)/C=C/C=C3\CO[C@@H]4[C@H](O)C(C)=C[C@@H](C(=O)O1)[C@]34O)O2` [Ivermectin], the “In vitro anti-ZIKV effects” value [1] is listed as “in vitro anti-ZIKV effects”.
For `OC(c1cc(C(F)(F)F)nc2c(C(F)(F)F)cccc12)C1CCCCN1` (centres unmarked) [Mefloquine], the “In vitro anti-ZIKV effects” value [1] is listed as “in vitro anti-ZIKV effects”.
For `O=C(Nc1ccc([N+](=O)[O-])cc1Cl)c1cc(Cl)ccc1O` [Niclosamide], the “In vitro anti-ZIKV effects” value [1] is listed as “in vitro anti-ZIKV effects”.
For `CO[C@H]1/C=C/O[C@@]2(C)Oc3c(C)c(O)c4c(O)c(c(/C=N/N5CCN(C)CC5)c(O)c4c3C2=O)NC(=O)/C(C)=C\C=C\[C@H](C)[C@H](O)[C@@H](C)[C@@H](O)[C@@H](C)[C@H](OC(C)=O)[C@@H]1C` [Rifampicin], the “Effect of increasing drug concentrations” value [2] was “dose-dependent reduction in protease activity”, the CC50 at 24 h [3] was 400 µg/mL (≈ 486 µM) and the CC50 at 24 h [4] was 400 µg/mL (≈ 486 µM). For the same compound, the “Dose-dependent reduction in virus titer observed” value [5] was “not”.
For `CC(C)OC(=O)[C@H](C)N[P@](=O)(OC[C@H]1O[C@@H](n2ccc(=O)[nH]c2=O)[C@](C)(F)[C@@H]1O)Oc1ccccc1` [Sofosbuvir], the “In vitro anti-ZIKV effects” value [1] is listed as “in vitro anti-ZIKV effects” and the “Efficacy in animal models” value [6] is listed as “effective in animal models”.
In the case of `O=C(Nc1ccc([N+](=O)[O-])cc1Cl)c1cc(Cl)ccc1O` [niclosamide], the Solubility [7] is given as “insoluble”.
With Aprotinin [listing 1 of 2 here] the “IC50 (vs protease activity)” value ([2]; 5 nM ZIKV NS2B-NS3 protease, positive control) was 13.6 ± 1.1 KIU/ml.
With Aprotinin [listing 2 of 2 here] the “Reduction in protease activity with increasing concentrations” value [8] was “blocked the protease cleavage activity”.
In the case of Octreotide acetate, the “Effect of increasing drug concentrations” value [2] is reported as “dose-dependent reduction in protease activity”.
